Assay results: PubChem BioAssay (NCI)
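Protocol summary: plate cells (96-well), add compound at 5 concentrations, incubate 48 h, interpolate endpoints linearly. GI50 is the concentration that inhibits growth by half. TGI denotes the concentration required for complete inhibition of growth.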

Experiments:
Assay in all cases: inhibition of tumour cell growth, NCI panel, 48 h
786-0 renal = tested on: 786-0 renal
A498 renal = tested on: A498 renal
A549 NSCLC = tested on: A549 NSCLC
ACHN renal = tested on: ACHN renal
BT-549 breast = tested on: BT-549 breast
CAKI-1 renal = tested on: CAKI-1 renal
CCRF-CEM leukemia = tested on: CCRF-CEM leukemia
COLO 205 colon = tested on: COLO 205 colon
DU-145 prostate = tested on: DU-145 prostate
EKVX NSCLC = tested on: EKVX NSCLC
HCC-2998 colon = tested on: HCC-2998 colon
HCT-116 colon = tested on: HCT-116 colon
HCT-15 colon = tested on: HCT-15 colon
HL-60(TB) leukemia = tested on: HL-60(TB) leukemia
HOP-62 NSCLC = tested on: HOP-62 NSCLC
HOP-92 NSCLC = tested on: HOP-92 NSCLC
HS 578T breast = tested on: HS 578T breast
HT29 colon = tested on: HT29 colon
IGROV1 ovarian = tested on: IGROV1 ovarian
KM12 colon = tested on: KM12 colon
LOX IMVI melanoma = tested on: LOX IMVI melanoma
M14 melanoma = tested on: M14 melanoma
MALME-3M melanoma = tested on: MALME-3M melanoma
MCF7 breast = tested on: MCF7 breast
MDA-MB-231 breast = tested on: MDA-MB-231 breast
MDA-MB-435 = tested on: MDA-MB-435
MOLT-4 leukemia = tested on: MOLT-4 leukemia
NCI-H226 lung = tested on: NCI-H226 lung
NCI-H23 lung = tested on: NCI-H23 lung
NCI-H460 lung = tested on: NCI-H460 lung
NCI-H522 lung = tested on: NCI-H522 lung
NCI/ADR-RES ovarian = tested on: NCI/ADR-RES ovarian
OVCAR-4 ovarian = tested on: OVCAR-4 ovarian
OVCAR-5 ovarian = tested on: OVCAR-5 ovarian
OVCAR-8 ovarian = tested on: OVCAR-8 ovarian
PC-3 prostate = tested on: PC-3 prostate
RPMI-8226 leukemia = tested on: RPMI-8226 leukemia
RXF 393 renal = tested on: RXF 393 renal
SF-268 CNS = tested on: SF-268 CNS
SF-295 CNS = tested on: SF-295 CNS
SF-539 CNS = tested on: SF-539 CNS
SK-MEL-2 melanoma = tested on: SK-MEL-2 melanoma
SK-MEL-28 melanoma = tested on: SK-MEL-28 melanoma
SK-MEL-5 melanoma = tested on: SK-MEL-5 melanoma
SK-OV-3 ovarian = tested on: SK-OV-3 ovarian
SN12C renal = tested on: SN12C renal
SNB-19 CNS = tested on: SNB-19 CNS
SNB-75 CNS = tested on: SNB-75 CNS
SR leukemia = tested on: SR leukemia
SW-620 colon = tested on: SW-620 colon
T-47D breast = tested on: T-47D breast
TK-10 renal = tested on: TK-10 renal
U251 CNS = tested on: U251 CNS
UACC-257 melanoma = tested on: UACC-257 melanoma
UACC-62 melanoma = tested on: UACC-62 melanoma
UO-31 renal = tested on: UO-31 renal

## CNC(=O)c1cc(-n2ccc3cc(NC(=O)Nc4ccc(N5CCN(C)CC5)c(C(F)(F)F)c4)ccc32)ccn1
786-0 renal
  GI50: 2.03 µM
  TGI: 5.31 µM
A498 renal
  GI50: 3.61 µM
  TGI: 7.07 µM
A549 NSCLC
  GI50: 3.58 µM
  TGI: 7.36 µM
ACHN renal
  GI50: 3.85 µM
  TGI: 7.22 µM
BT-549 breast
  GI50: 2.7 µM
  TGI: 5.75 µM
CAKI-1 renal
  GI50: 4.15 µM
  TGI: 8.3 µM
CCRF-CEM leukemia
  GI50: 2.54 µM
  TGI: 16 µM
COLO 205 colon
  GI50: 4.21 µM
  TGI: 8.75 µM
DU-145 prostate
  GI50: 3.97 µM
  TGI: 7.52 µM
EKVX NSCLC
  GI50: 3.46 µM
  TGI: 6.88 µM
HCC-2998 colon
  GI50: 3.53 µM
  TGI: 7.05 µM
HCT-116 colon
  GI50: 1.7 µM
  TGI: 4.87 µM
HCT-15 colon
  GI50: 0.796 µM
  TGI: 3.48 µM
HL-60(TB) leukemia
  GI50: 1.44 µM
  TGI: 6.33 µM
HOP-62 NSCLC
  GI50: 3.41 µM
  TGI: 7.46 µM
HOP-92 NSCLC
  GI50: 1.22 µM
  TGI: 4.68 µM
HS 578T breast
  GI50: 2.03 µM
  TGI: 7.26 µM
HT29 colon
  GI50: 0.938 µM
  TGI: 3.59 µM
IGROV1 ovarian
  GI50: 4.12 µM
  TGI: 8.44 µM
KM12 colon
  GI50: 0.866 µM
  TGI: 3.88 µM
LOX IMVI melanoma
  GI50: 2.68 µM
  TGI: 5.95 µM
M14 melanoma
  GI50: 2.95 µM
  TGI: 6.09 µM
MALME-3M melanoma
  GI50: 3.2 µM
  TGI: 6.71 µM
MCF7 breast
  GI50: 2.3 µM
  TGI: 6.34 µM
MDA-MB-231 breast
  GI50: 3.48 µM
  TGI: 7.81 µM
MDA-MB-435
  GI50: 3.67 µM
  TGI: 7.17 µM
MOLT-4 leukemia
  GI50: 0.744 µM
  TGI: 2.91 µM
NCI-H226 lung
  GI50: > 25 µM
  TGI: > 25 µM
NCI-H23 lung
  GI50: 3.87 µM
  TGI: 8.32 µM
NCI-H460 lung
  GI50: 4.1 µM
  TGI: 8.4 µM
NCI-H522 lung
  GI50: > 25 µM
  TGI: > 25 µM
NCI/ADR-RES ovarian
  GI50: 5.3 µM
  TGI: 13.7 µM
OVCAR-4 ovarian
  GI50: 3.65 µM
  TGI: 8.62 µM
OVCAR-5 ovarian
  GI50: 3.57 µM
  TGI: 7.74 µM
OVCAR-8 ovarian
  GI50: 4.27 µM
  TGI: 8.27 µM
PC-3 prostate
  GI50: 3.6 µM
  TGI: 9.56 µM
RPMI-8226 leukemia
  GI50: 0.886 µM
  TGI: 4.01 µM
RXF 393 renal
  GI50: 0.633 µM
  TGI: 1.75 µM
SF-268 CNS
  GI50: 3.3 µM
  TGI: 7.43 µM
SF-295 CNS
  GI50: 0.492 µM
  TGI: 1.11 µM
SF-539 CNS
  GI50: 1.2 µM
  TGI: 4.53 µM
SK-MEL-2 melanoma
  GI50: 4.33 µM
  TGI: 7.95 µM
SK-MEL-28 melanoma
  GI50: 2.96 µM
  TGI: 6.38 µM
SK-MEL-5 melanoma
  GI50: 4.28 µM
  TGI: 7.79 µM
SK-OV-3 ovarian
  GI50: 4.21 µM
  TGI: 7.75 µM
SN12C renal
  GI50: 3.53 µM
  TGI: 7.56 µM
SNB-19 CNS
  GI50: 3.49 µM
  TGI: 7.23 µM
SNB-75 CNS
  GI50: 1.2 µM
  TGI: 4.98 µM
SR leukemia
  GI50: 0.479 µM
  TGI: 2.85 µM
SW-620 colon
  GI50: 3.41 µM
  TGI: 7.11 µM
T-47D breast
  GI50: 3.65 µM
  TGI: 9.08 µM
TK-10 renal
  GI50: 4.39 µM
  TGI: 8.16 µM
U251 CNS
  GI50: 2.43 µM
  TGI: 5.48 µM
UACC-257 melanoma
  GI50: 3.97 µM
  TGI: 7.6 µM
UACC-62 melanoma
  GI50: 4.15 µM
  TGI: 8.22 µM
UO-31 renal
  GI50: 4.27 µM
  TGI: 8.56 µM
